Values quoted from earlier work in patent publication US20240423930A1, “PHARMACEUTICAL COMPOSITION AND METHOD FOR TREATING CARDIOVASCULAR DISEASES” (priority 2020, published 2024).

System: furin
Conditions: ectopic expression of the inhibitor; in vitro digestion assay

- blocked TGF-beta1 processing mediated by endogenous enzymes: 80%
Substance: alpha (1)-antitrypsin Portland [alpha(1)-AT-PDX]
